In test [1] the target is Tyrosyl-DNA phosphodiesterase 2 (Homo sapiens, UniProt O95551). The test can be described thus: potency against TDP2 phosphodiesterase activity – biochemical, epi absorbance, IC50, dose response (AID 743297).
Test [2] can be described thus: viability of HCT116 lacking mutant beta-catenin – cell-based, human colon tumor, dose response (AID 1045).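 Further: HCT116 colon tumor cells with beta catenin knocked out; cells exposed to compound for 60 hours.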 The test is classed as functional.
Test [3] has as its target T1, Sentrin-specific protease 7 (Homo sapiens, UniProt Q9BQF6).
T1 sequence (Q9BQF6 whole entry): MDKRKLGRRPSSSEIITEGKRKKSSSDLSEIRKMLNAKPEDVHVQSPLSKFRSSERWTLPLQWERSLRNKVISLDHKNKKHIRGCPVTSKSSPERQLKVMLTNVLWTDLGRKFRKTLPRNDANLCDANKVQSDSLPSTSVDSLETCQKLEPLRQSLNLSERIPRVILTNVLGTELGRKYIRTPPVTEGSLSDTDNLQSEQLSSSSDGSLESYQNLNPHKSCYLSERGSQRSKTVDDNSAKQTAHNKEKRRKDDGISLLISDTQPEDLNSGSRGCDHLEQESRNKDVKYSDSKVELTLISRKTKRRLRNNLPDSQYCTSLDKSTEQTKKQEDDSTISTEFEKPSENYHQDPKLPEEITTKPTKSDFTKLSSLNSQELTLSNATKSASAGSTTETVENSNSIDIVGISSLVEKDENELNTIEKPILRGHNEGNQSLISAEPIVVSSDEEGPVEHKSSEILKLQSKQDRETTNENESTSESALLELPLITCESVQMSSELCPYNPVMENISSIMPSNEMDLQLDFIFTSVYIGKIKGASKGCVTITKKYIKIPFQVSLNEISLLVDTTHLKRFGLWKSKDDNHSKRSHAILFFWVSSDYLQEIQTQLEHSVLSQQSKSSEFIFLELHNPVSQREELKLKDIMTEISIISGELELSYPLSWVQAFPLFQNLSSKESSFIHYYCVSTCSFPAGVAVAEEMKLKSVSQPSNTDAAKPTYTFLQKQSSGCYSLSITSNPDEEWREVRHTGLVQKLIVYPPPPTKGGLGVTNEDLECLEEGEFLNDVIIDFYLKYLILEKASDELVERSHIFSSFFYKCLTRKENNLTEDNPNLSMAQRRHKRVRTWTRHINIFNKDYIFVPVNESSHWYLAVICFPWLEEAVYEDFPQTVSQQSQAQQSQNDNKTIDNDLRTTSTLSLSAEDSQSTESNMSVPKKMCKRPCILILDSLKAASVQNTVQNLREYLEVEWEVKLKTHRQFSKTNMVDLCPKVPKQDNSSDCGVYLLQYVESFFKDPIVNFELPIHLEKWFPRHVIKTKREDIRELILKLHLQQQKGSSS
In words: inhibition of human SENP7 cleavage activity – biochemical, luminescence, SAR follow-up (AID 504497). The test is classed as functional.

Another test has as its target T2, Caspase-3 (Homo sapiens, UniProt P42574).
T2 sequence (P42574 whole entry): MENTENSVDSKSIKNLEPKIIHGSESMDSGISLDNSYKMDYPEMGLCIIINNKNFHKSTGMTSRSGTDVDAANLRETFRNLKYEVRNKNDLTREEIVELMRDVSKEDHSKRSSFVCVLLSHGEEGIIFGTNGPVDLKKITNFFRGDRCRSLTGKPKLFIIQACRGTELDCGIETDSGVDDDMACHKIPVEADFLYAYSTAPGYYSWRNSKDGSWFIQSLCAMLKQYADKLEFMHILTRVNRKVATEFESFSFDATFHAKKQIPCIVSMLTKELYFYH
In words: SAR Analysis of small molecule inhibitors of Sentrin-specific proteases (SENPs) using a Caspase-3 Selectivity assay. [Related pubchem assays (depositor defined):AID2540, AID2599, AID434973, AID489001]. The class given is functional.

The target of test [4] is Serine/threonine-protein phosphatase PP1-alpha catalytic subunit (Homo sapiens, UniProt P62136). In words: inhibition of protein phosphatase 1 activity – biochemical, fluorescence, dose response (AID 2394).

Structures are written as SMILES. Activity calls are given as the source filed them.

A word on the IC50: it is the concentration at which inhibition is half-maximal. The term EC50 denotes the concentration giving half of the maximal effect.

Sequence of Serine/threonine-protein phosphatase PP1-alpha catalytic subunit (P62136 whole entry): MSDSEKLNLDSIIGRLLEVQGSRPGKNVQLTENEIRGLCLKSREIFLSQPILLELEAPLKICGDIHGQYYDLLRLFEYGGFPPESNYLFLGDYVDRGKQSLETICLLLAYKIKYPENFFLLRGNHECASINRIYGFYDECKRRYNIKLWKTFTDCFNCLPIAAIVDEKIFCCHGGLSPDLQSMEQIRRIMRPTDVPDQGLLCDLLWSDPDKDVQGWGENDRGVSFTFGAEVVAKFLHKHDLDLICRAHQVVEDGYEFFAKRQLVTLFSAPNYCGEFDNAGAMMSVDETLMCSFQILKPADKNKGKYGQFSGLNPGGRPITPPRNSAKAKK
Sequence of Tyrosyl-DNA phosphodiesterase 2 (O95551 whole entry): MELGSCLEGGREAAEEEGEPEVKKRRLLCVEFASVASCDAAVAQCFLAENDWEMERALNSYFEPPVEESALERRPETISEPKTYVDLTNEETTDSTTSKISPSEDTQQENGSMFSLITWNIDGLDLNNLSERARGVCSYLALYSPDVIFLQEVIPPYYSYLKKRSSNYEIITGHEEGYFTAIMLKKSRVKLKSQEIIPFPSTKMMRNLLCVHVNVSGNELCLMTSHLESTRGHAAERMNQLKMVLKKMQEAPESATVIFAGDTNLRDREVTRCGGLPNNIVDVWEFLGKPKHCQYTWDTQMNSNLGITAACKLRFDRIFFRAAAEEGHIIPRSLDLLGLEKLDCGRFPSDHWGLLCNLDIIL

For the compound `CCOC(=O)C1=C(COC(=O)c2ccc([N+](=O)[O-])s2)NC(=O)NC1C` (stereo not given), the IC50 in test [1] was 52.5 µM (inactive).

Consider `Oc1cccc(/C=N/Nc2cc(N3CCCC3)nc(N3CCCC3)n2)c1`, for which the EC50 in test [2] was 18.8 µM (active). Further, the IC50 is 49.7 µM (active) in test [3], > 99 µM (inactive) on Caspase-3 and 21.6 µM (not active) in test [4].

The values are drawn from ChEMBL document CHEMBL1201862, “PubChem BioAssay data set” (2004).
